Read-outs that look alike come from different tables or passages of the source.
Legend:
Format in all cases: cell-based, human
SKM-1 cells = test: EPZ-5676 300 nM 7-day pre-treatment, then second compound 72 hours, ATPLite, IC50 shift (Example 6)
Protocol: (§1) Cells were then equilibrated in incubators for 24 hours before treatment with a second compound. Treated assay plates were incubated with a second compound for 72 hours. After this time, plates were developed for endpoint analysis using ATPLite to measure ATP content, which is used as an indicator of cell viability.
(§2) “N/D” means that IC50 of the second compound could not be determined for both conditions.

MOLM-13 cells = test: as above; conditions: 300 nM EPZ-5676 or DMSO 7-day pre-treatment, then 2nd compound 72 hours, Synergy = IC50 of 2nd compound decreased by 2-fold or more vs DMSO control
Protocol: as §1, §2

MOLM-13 (MLL-AF9) [1] = test: EPZ-5676 7-day pre-treatment, then second compound 72 hours, growth inhibition GI100 shift; primary screen and retest (Example 7); conditions: 300 nM EPZ-5676 7-day pre-treatment; second compound 72 hours; ATPLite
Protocol: as §1
Cells were then treated with a second compound for 72 hours. After this time, plates were developed for endpoint analysis using Cell Titer Glo to measure ATP content, which is used as an indicator of cell viability.
“N/D” means the GI100 of the second compound could not be determined for both conditions and “-” means not tested.
Growth Inhibition (GI) as a measure of cell viability: The cell viability of vehicle was measured at the time of dosing the second agent (T0) and after seventy-two hours (T72). […] A GI 200% represents complete death of all cells in the culture well. Compounds reaching an activity plateau of GI 200% are considered cytotoxic. GI is calculated by applying the following test and equation: […]
where T is the signal measure for a test article, V is the vehicle-treated control measure, and V0 is the vehicle control measure at time zero.

MOLM-13 (MLL-AF9) [2] = test: Combination proliferation study with Compound A2 (ATP/CellTiter-Glo, Chou-Talalay combination index); conditions: 7 Day Cotreatment Model, Table 5
Protocol: The acute myelogenous leukemia cell lines MV4-11 (MLL-AF4) and MOLM-13 (MLL-AF9) were obtained from American Type Culture Collection (ATCC; Rockville, Md.) and Deutsche Sammlung von Mikroorganismen and Zellkulturen (DSMZ; Braunschweig, Germany) respectively.
(§3) Studies were performed using MLL-rearranged cell lines in vitro to evaluate the anti-proliferative effect of a combination of two agents together on cell growth. Initial proliferation studies were performed to determine the IC50 of a given compound in each cell line. The cell counts were measured by ATP quantitation using the Promega Cell Titer Glo kit and luminescence values corresponded to the amount of ATP in a given well.
Compounds were evaluated for synergy in the co-treatment phase by testing the compounds in a concentration range which was bracketed around their IC50 values. The compounds were plated to a 96 well plate in a matrix format (FIG. 3) which includes increasing concentrations of each drug in the combination in a constant ratio, in addition to the effect of each compound alone in the study. Cells were seeded and grown in the log-linear phase for 3 or 7 days in the co-treatment phase. Minimum inhibition (DMSO alone) controls were used in each plate to calculate fraction affected (Fa) of a test well. DMSO concentration was kept at 0.1% v/v.
The drug combination analysis was performed utilizing the Chou-Talalay method Synergy was determined using the software package Calcusyn by Biosoft. The combination index (CI) is a quantitative term used to describe the level of synergy or antagonism in a given test system. A combination index less than one indicates synergy, and a CI greater than one indicates antagonism. Further, strong synergism is achieved when the CI value falls below 0.3.
Graphs representing values of combination index (CI) versus Fractional effect (Fa) known as Fa-CI plots were generated and synergy was evaluated. Drug synergy was statistically defined by CI values less than 1, antagonism by CI>1 and additive effect by CI equal to 1.
Graphs representing values of combination index (CI) versus Fractional effect (Fa) known as Fa-CI plots were generated and synergy was evaluated. Drug synergy was statistically defined by CI values less than 1, antagonism by CI>1 and additive effect by CI equal to 1. […]
Cell viability was measured via ATP content using CellTiter-Glo® (Promega).
as §3, with “Proliferation studies” for “Studies”, “MOLM-13, MV4-11 and SKM-1” for “MLL-rearranged”, “cancer cell killing” for “anti-proliferative”, “IC50 values” for “IC50”, “correspond” for “corresponded”, “well. […]” for “well.”
Compounds evaluated for synergy in the co-treatment phase were tested in a range which was bracketed around the IC50's.

[3] = SKM-1 cells, 300 nM EPZ-5676 or DMSO 7-day pre-treatment, then 2nd compound 72 hours, ATPLite, Synergy = IC50 of 2nd compound decreased by 2-fold or more vs DMSO control

| Compound | SKM-1 (summary of combination study: EPZ-5676 + 2nd compound) (SKM-1 cells; [3]) | MOLM-13 (summary of combination study: EPZ-5676 + 2nd compound) (MOLM-13 cells) | Combination with EPZ-5676, MOLM-13 (MLL-AF9) Primary screen (MOLM-13 (MLL-AF9) [1]) | Combination with Compound A2, MOLM13 (MOLM-13 (MLL-AF9) [2]) | SKM-1 (summary of combination study: EPZ-5676 + 2nd compound) (SKM-1 cells) |
| --- | --- | --- | --- | --- | --- |
| CN(C)C(=O)c1cc2cnc(Nc3ccc(N4CCNCC4)cn3)nc2n1C1CCCC1 [LEE011] | Synergy (considered synergistic if the IC50 value of the second compound decreased by 2-fold or more when EPZ-5676 was added as compared to the DMSO control) | Synergy (considered synergistic if the IC50 value of the second compound decreased by 2-fold or more when EPZ-5676 was added as compared to the DMSO control) |  |  |  |
| CS(=O)(=O)N1CCN(Cc2cc3nc(-c4cccc5[nH]ncc45)nc(N4CCOCC4)c3s2)CC1 [GDC-0941] | Synergy (considered synergistic if the IC50 value of the second compound decreased by 2-fold or more when EPZ-5676 was added as compared to the DMSO control) | Synergy (considered synergistic if the IC50 value of the second compound decreased by 2-fold or more when EPZ-5676 was added as compared to the DMSO control) |  |  |  |
| C=C(c1ccc(C(=O)O)cc1)c1cc2c(cc1C)C(C)(C)CCC2(C)C [Bexarotene] | Synergy (considered synergistic if the IC50 value of the second compound decreased by 2-fold or more when EPZ-5676 was added as compared to the DMSO control) | Synergy (considered synergistic if the IC50 value of the second compound decreased by 2-fold or more when EPZ-5676 was added as compared to the DMSO control) |  |  |  |
| Cc1sc2c(c1C)C(c1ccc(Cl)cc1)=N[C@@H](CC(N)=O)c1nnc(C)n1-2 [CPI-203] | Synergy (considered synergistic if the IC50 value of the second compound decreased by 2-fold or more when EPZ-5676 was added as compared to the DMSO control) | Synergy (considered synergistic if the IC50 value of the second compound decreased by 2-fold or more when EPZ-5676 was added as compared to the DMSO control) |  |  |  |
| CC1=C(/C=C/C(C)=C/C=C/C(C)=C/C(=O)O)C(C)(C)CCC1 [Tretinoin] | Synergy (considered synergistic if the IC50 value of the second compound decreased by 2-fold or more when EPZ-5676 was added as compared to the DMSO control) | Synergy (considered synergistic if the IC50 value of the second compound decreased by 2-fold or more when EPZ-5676 was added as compared to the DMSO control) |  |  |  |
| O=C(/C=C/c1ccc(O)c(O)c1)OCCc1ccccc1 [CAPE] | Synergy (considered synergistic if the IC50 value of the second compound decreased by 2-fold or more when EPZ-5676 was added as compared to the DMSO control) | Synergy (considered synergistic if the IC50 value of the second compound decreased by 2-fold or more when EPZ-5676 was added as compared to the DMSO control) |  |  |  |
| COc1ccc(-c2ccc3c(N4CCOCC4)nc(N4C[C@@H](C)O[C@@H](C)C4)nc3n2)cc1CO [KU 0063794] | Synergy (considered synergistic if the IC50 value of the second compound decreased by 2-fold or more when EPZ-5676 was added as compared to the DMSO control) | Synergy (considered synergistic if the IC50 value of the second compound decreased by 2-fold or more when EPZ-5676 was added as compared to the DMSO control) |  |  |  |
| O=C(c1cn(Cc2cncn2Cc2ccc(Br)cc2)cc1-c1cccc2ccccc12)N1CCOCC1 [LB42708] | Synergy (considered synergistic if the IC50 value of the second compound decreased by 2-fold or more when EPZ-5676 was added as compared to the DMSO control) | Synergy (considered synergistic if the IC50 value of the second compound decreased by 2-fold or more when EPZ-5676 was added as compared to the DMSO control) |  |  |  |
| COCc1c(C(C)C)nc(C(C)C)c(/C=C/[C@@H](O)C[C@@H](O)CC(=O)O)c1-c1ccc(F)cc1 [Cerivastatin Sodium] | Synergy (considered synergistic if the IC50 value of the second compound decreased by 2-fold or more when EPZ-5676 was added as compared to the DMSO control) | Synergy (considered synergistic if the IC50 value of the second compound decreased by 2-fold or more when EPZ-5676 was added as compared to the DMSO control) |  |  |  |
| O=C(Nc1cccc(Nc2ncc(Br)c(NCCc3cnc[nH]3)n2)c1)N1CCCC1 [BX-912] | Synergy (considered synergistic if the IC50 value of the second compound decreased by 2-fold or more when EPZ-5676 was added as compared to the DMSO control) |  |  |  |  |
| Cn1c(Nc2ccc(C(F)(F)F)cc2)nc2cc(Oc3ccnc(-c4ncc(C(F)(F)F)[nH]4)c3)ccc21 [RAF265] |  |  | Synergy (considered synergistic if the GI100 (Growth inhibition 100) value of the second compound decreased by 2-fold or more when EPZ-5676 was added as compared to the DMSO control) |  |  |
| NC1(c2ccc(-c3nc4ccn5c(=O)[nH]nc5c4cc3-c3ccccc3)cc2)CCC1 [MK2206] | Synergy (considered synergistic if the IC50 value of the second compound decreased by 2-fold or more when EPZ-5676 was added as compared to the DMSO control) | Synergy (considered synergistic if the IC50 value of the second compound decreased by 2-fold or more when EPZ-5676 was added as compared to the DMSO control) |  | Additive (additive effect by CI equal to 1) |  |
| CCN(CC)CCNC(=O)c1c(C)[nH]c(/C=C2\C(=O)Nc3ccc(F)cc32)c1C [Sunitinib Malate] | 2.0 |  |  |  |  |
| COc1cc2c(NC3CCN(C4CCCCC4)CC3)nc(N3CCCN(C(C)C)CC3)nc2cc1OCCCN1CCCCC1 [UNC 0646] | Synergy (considered synergistic if the IC50 value of the second compound decreased by 2-fold or more when EPZ-5676 was added as compared to the DMSO control) | Synergy (considered synergistic if the IC50 value of the second compound decreased by 2-fold or more when EPZ-5676 was added as compared to the DMSO control) |  |  |  |
| Arsenic Trioxide |  |  |  |  | 2.0 |
| COc1ccc(CCc2nc3cc(-c4c(C)noc4C)ccc3n2C[C@H](C)N2CCOCC2)cc1Cl [SGC-CBP30] | Synergy (considered synergistic if the IC50 value of the second compound decreased by 2-fold or more when EPZ-5676 was added as compared to the DMSO control) |  |  |  |  |
| Cc1sc2c(c1C)C(c1ccc(Cl)cc1)=N[C@@H](CC(=O)Nc1ccc(O)cc1)c1nnc(C)n1-2 [OTX015] | Synergy (considered synergistic if the IC50 value of the second compound decreased by 2-fold or more when EPZ-5676 was added as compared to the DMSO control) | Synergy (considered synergistic if the IC50 value of the second compound decreased by 2-fold or more when EPZ-5676 was added as compared to the DMSO control) |  |  |  |
